Data as given in ChEMBL document CHEMBL1152973, “Structure-activity relationship of etomidate derivatives at the GABA(A) receptor: Comparison with binding to 11beta-hydroxylase” (Bioorg Med Chem Lett, 2009).
Calls of active or inactive are those of the source. The rule behind the calls is not given here.

What was measured:
[1] = Displacement of [3H]ethynylpropylbicycloorthobenzoate from GABAA receptor from rat cortical membrane by scintillation counting in presence of 1 uM GABA
[2] = Displacement of [3H]ethynylpropylbicycloorthobenzoate from GABA receptor from rat cortical membrane by scintillation counting in absence of GABA
[3] = species on record: Rattus norvegicus; test: Ratio of IC50 for rat cortical membrane GABA receptor in absence of GABA to IC50 for rat cortical membrane GABA receptor in presence of GABA
[4] = species on record: Rattus norvegicus; test: Displacement of [3H]ethynylpropylbicycloorthobenzoate from GABA receptor from rat cortical membrane at 100 uM by scintillation counting in presence of 1 uM GABA
[5] = species on record: Rattus norvegicus; test: Displacement of [3H]ethynylpropylbicycloorthobenzoate from GABA receptor from rat cortical membrane at 100 uM by scintillation counting in absence of GABA

With `CC(=O)[C@H]1CC[C@H]2[C@@H]3CC[C@H]4C[C@H](O)CC[C@]4(C)[C@H]3C(=O)C[C@]12C` [ALFAXALONE] the IC50 [1] was 0.9 µM, the IC50 [2] was 86 µM and the Ratio IC50 [3] was 102.

For `CC(C)OC(=O)c1cncn1[C@H](C)c1ccccc1`, the IC50 [1] was 1.47 µM, the IC50 [2] was 20.7 µM and the Ratio IC50 [3] was 14.6.

For `C[C@H](c1ccccc1)n1cncc1C(=O)OCCF`, the IC50 [1] was 4.78 µM, the IC50 [2] was 80 µM and the Ratio IC50 [3] was 16.6.

With `COC(=O)c1cncn1[C@H](C)c1ccc(CO)cc1` the IC50 [1] was 169 µM and the IC50 [2] was greater than 300 µM.

Work on `COC(=O)c1cncn1[C@H](C)c1ccc(Br)cc1` yielded an IC50 [1] of 7.62 µM, an IC50 [2] of 109 µM and a Ratio IC50 [3] of 15.6.

Molecule `COC(=O)c1cncn1[C@H](C)c1cccc(I)c1` has an IC50 [1] of 53 µM and an IC50 [2] greater than 300 µM.

In the case of `C[C@H](c1ccccc1)n1cncc1C(N)=O`, the Activity [4] is reported as “inactive” and the Activity [5] is reported as “inactive”.

With `C[C@H](c1ccccc1)n1cncc1C(=O)O` the Activity [4] was “inactive” and the Activity [5] was “inactive”.

`CCOC(=O)c1cncn1[C@H](C)c1ccc(I)cc1` gave an IC50 [1] of 33 µM and an IC50 [2] greater than 300 µM.

For `COC(=O)c1cncn1[C@H](C)c1ccc(C)cc1`, the IC50 [1] was 15.5 µM and the IC50 [2] was greater than 300 µM.

Work on `CC(=O)c1cncn1[C@H](C)c1ccccc1` yielded an IC50 [1] of 155 µM and an IC50 [2] greater than 300 µM.

Molecule `CC[C@H](c1ccccc1)n1cncc1C(=O)OC` has an IC50 [1] of 7.15 µM, an IC50 [2] of 111 µM and a Ratio IC50 [3] of 15.8.

`CCOC(=O)c1cncn1[C@H](C)c1ccccc1` [ETOMIDATE] gave an IC50 [1] of 2.05 µM, an IC50 [2] of 38 µM and a Ratio IC50 [3] of 19.3.

In the case of `COC(=O)c1cncn1[C@@H](C)c1ccccc1`, the IC50 [1] is reported as 202 µM and the IC50 [2] is reported as greater than 300 µM.

`CCCOC(=O)c1cncn1[C@H](C)c1ccccc1` gave an IC50 [1] of 1.29 µM, an IC50 [2] of 15.4 µM and a Ratio IC50 [3] of 14.1.

Molecule `COC(=O)c1cncn1[C@H](C)c1ccccc1` has an IC50 [1] of 8.97 µM, an IC50 [2] of 163 µM and a Ratio IC50 [3] of 19.6.

In the case of `COC(=O)c1cncn1Cc1ccccc1`, the IC50 [1] is reported as 157 µM and the IC50 [2] is reported as greater than 300 µM.

For `COC(=O)c1cncn1[C@H](C)c1ccc(I)cc1` [IODOMETOMIDATE I-123, R-], the IC50 [1] was 37 µM and the IC50 [2] was greater than 300 µM.

For `COC(=O)c1cncn1[C@@H]1CCc2ccccc21`, the IC50 [1] was 122 µM and the IC50 [2] was greater than 300 µM.

With `CC(C)(C(=O)c1cccnc1)c1cccnc1` the Activity [4] was “inactive” and the Activity [5] was “inactive”.

Molecule `CC(=O)[C@H]1CC[C@H]2[C@@H]3CC[C@H]4C[C@H](O)CC[C@]4(C)[C@H]3CC[C@]12C` [BREXANOLONE] has an IC50 [1] of 0.14 µM, an IC50 [2] of 6.2 µM and a Ratio IC50 [3] of 50.

For `CC(C)(c1cccnc1)C(O)c1cccnc1` (stereo not given), the Activity [4] was “inactive” and the Activity [5] was “inactive”.

For `COC(=O)c1cncn1[C@H](C)c1cccnc1`, the Activity [4] was “inactive” and the Activity [5] was “inactive”.
